Molecular target: Complement C3 (Homo sapiens, UniProt P01024)
Test: Inhibition of complement C3

Complement C3, sequence (P01024 23-667 limits assumed): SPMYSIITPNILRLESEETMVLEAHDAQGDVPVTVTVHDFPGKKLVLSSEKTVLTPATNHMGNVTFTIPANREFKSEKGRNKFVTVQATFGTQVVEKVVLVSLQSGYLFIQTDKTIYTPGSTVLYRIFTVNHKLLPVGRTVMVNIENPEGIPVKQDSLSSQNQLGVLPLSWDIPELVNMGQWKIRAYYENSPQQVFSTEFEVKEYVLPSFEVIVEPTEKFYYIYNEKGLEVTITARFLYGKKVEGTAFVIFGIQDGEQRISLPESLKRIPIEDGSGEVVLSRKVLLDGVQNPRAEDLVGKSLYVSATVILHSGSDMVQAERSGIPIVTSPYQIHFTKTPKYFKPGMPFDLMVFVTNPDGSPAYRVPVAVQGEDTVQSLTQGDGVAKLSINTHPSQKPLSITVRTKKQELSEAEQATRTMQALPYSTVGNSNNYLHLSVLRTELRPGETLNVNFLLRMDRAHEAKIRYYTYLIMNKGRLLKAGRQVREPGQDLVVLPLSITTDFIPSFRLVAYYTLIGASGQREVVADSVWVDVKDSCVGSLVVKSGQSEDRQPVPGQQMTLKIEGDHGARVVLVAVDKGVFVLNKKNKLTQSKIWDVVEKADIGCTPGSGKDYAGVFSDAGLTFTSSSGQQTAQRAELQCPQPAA
Complement C3, sequence (P01024 672-1663 limits assumed): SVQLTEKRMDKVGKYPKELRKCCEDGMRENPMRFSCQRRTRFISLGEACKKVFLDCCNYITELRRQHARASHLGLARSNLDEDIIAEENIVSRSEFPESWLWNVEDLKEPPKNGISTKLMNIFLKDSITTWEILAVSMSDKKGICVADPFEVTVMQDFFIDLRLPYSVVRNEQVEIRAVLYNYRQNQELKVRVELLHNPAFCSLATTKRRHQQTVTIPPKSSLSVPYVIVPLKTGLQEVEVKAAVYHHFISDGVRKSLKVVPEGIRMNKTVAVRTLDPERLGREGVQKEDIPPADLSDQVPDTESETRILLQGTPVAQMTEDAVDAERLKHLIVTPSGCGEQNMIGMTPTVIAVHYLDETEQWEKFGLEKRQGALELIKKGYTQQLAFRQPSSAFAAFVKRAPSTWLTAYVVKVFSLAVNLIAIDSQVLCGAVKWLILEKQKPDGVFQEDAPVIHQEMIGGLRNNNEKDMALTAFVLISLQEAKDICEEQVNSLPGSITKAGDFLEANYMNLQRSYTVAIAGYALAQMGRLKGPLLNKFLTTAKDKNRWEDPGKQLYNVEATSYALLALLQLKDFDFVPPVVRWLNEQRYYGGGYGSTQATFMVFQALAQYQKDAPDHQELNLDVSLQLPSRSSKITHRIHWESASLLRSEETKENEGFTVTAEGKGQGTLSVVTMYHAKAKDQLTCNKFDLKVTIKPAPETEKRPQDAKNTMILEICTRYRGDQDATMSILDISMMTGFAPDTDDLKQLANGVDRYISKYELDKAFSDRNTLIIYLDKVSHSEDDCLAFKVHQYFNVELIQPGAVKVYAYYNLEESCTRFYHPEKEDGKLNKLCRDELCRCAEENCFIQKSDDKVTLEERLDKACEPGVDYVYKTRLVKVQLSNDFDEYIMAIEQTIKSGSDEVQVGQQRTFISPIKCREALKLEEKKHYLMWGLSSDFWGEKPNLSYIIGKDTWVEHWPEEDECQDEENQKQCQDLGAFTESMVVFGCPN

`CC[C@H](C)[C@H](NC(C)=O)C(=O)N[C@H]1CSSC[C@@H](C(=O)N[C@H](C(N)=O)[C@@H](C)O)NC(=O)[C@H](CCCNC(=N)N)NC(=O)[C@H](Cc2c[nH]cn2)NC(=O)[C@H](C)NC(=O)CNC(=O)[C@H](Cc2c[nH]c3ccccc23)NC(=O)[C@H](CC(=O)O)NC(=O)[C@H](CCC(N)=O)NC(=O)[C@H](Cc2ccc3ccccc3c2)NC(=O)[C@H](C(C)C)NC1=O` gave an IC50 of 545 nM.
